This note sets out measurements from PubChem BioAssay AID328 (DTP/NCI, 2004).

The experiment has as its system BDF1 mice, P388 leukemia ip, median survival T/C. The experiment can be described thus: NCI In Vivo Anticancer Drug Screen. Data for tumor model P388 Leukemia (intraperitoneal) in B6D2F1 (BDF1) mice. The settings on record: endpoint: median survival time, higher = longer survival. In outline:
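Reported as T/C, where T is the survival measurement in dosed animals and C the same measurement in vehicle controls.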

Where [1] appears, read: dose: 50.0 mg/kg/injection, schedule: Q04DX003 (ip), vehicle: Klucel (hydroxypropylcellulose) (HPC).
Where [2] appears, read: dose: 50.0 mg/kg/injection, schedule: Q01DX009 (ip), vehicle: saline with Tween-80.
The mark [3] stands for this setting: dose: 100.0 mg/kg/injection, schedule: Q01DX009 (ip), vehicle: saline with Tween-80.
Setting [4] is: dose: 200.0 mg/kg/injection, schedule: Q01DX009 (ip), vehicle: saline with Tween-80.
[5] abbreviates: dose: 100.0 mg/kg/injection, schedule: Q04DX003 (ip), vehicle: saline with Tween-80.
The mark [6] stands for this setting: dose: 200.0 mg/kg/injection, schedule: Q04DX003 (ip), vehicle: saline with Tween-80.
The mark [7] stands for this setting: dose: 400.0 mg/kg/injection, schedule: Q01DX009 (ip), vehicle: saline with Tween-80.
Setting [8] is: dose: 400.0 mg/kg/injection, schedule: Q04DX003 (ip), vehicle: saline with Tween-80.

SMILES strings stand for the structures. Values joined by “and” are separate entries in the source; they are usually repeats but may differ in a detail not shown here. Equal entries are not always repeated. Toxic doses and inconclusive results are not listed.

On to `CCOC(=O)C(Cc1ccc(N(CCCl)CCCl)cc1)NP1(=O)NCCCO1` (stereo unspecified), for which the T/C is 153 % of control (dose: 6.25 mg/kg/injection, schedule: Q01DX009 (ip), vehicle: Klucel (hydroxypropylcellulose) (HPC)); 169 % of control (dose: 9.0 mg/kg/injection, schedule: Q04DX003 (ip), vehicle: Klucel (hydroxypropylcellulose) (HPC)); 154 % of control (dose: 9.5 mg/kg/injection, schedule: Q04DX003 (ip), vehicle: Klucel (hydroxypropylcellulose) (HPC)); 209 % of control (dose: 12.0 mg/kg/injection, schedule: Q04DX003 (ip), vehicle: Klucel (hydroxypropylcellulose) (HPC)); 230 % of control (dose: 12.5 mg/kg/injection, schedule: Q01DX009 (ip), vehicle: Klucel (hydroxypropylcellulose) (HPC)); 166 % of control (dose: 14.5 mg/kg/injection, schedule: Q04DX003 (ip), vehicle: Klucel (hydroxypropylcellulose) (HPC)). Besides, the T/C by setting is: (dose: 22.0 mg/kg/injection, schedule: Q04DX003 (ip), vehicle: Klucel (hydroxypropylcellulose) (HPC)) 166 % of control; (dose: 25.0 mg/kg/injection, schedule: Q01DX009 (ip), vehicle: Klucel (hydroxypropylcellulose) (HPC)) 230 % of control; (dose: 25.0 mg/kg/injection, schedule: Q04DX003 (ip), vehicle: Klucel (hydroxypropylcellulose) (HPC)) 272 % of control; (dose: 33.0 mg/kg/injection, schedule: Q04DX003 (ip), vehicle: Klucel (hydroxypropylcellulose) (HPC)) 250 % of control and 212 % of control; under setting [1], 250 % of control and 181 % of control; (dose: 75.0 mg/kg/injection, schedule: Q04DX003 (ip), vehicle: Klucel (hydroxypropylcellulose) (HPC)) 91 % of control.

For `O=C(O)CCSc1ccccc1`, the T/C runs as follows: (dose: 50.0 mg/kg/injection, schedule: Q01DX009 (ip), vehicle: Klucel (hydroxypropylcellulose) (HPC)) 90 % of control; under setting [1], 95 % of control; (dose: 100.0 mg/kg/injection, schedule: Q01DX009 (ip), vehicle: Klucel (hydroxypropylcellulose) (HPC)) 100 % of control; (dose: 100.0 mg/kg/injection, schedule: Q04DX003 (ip), vehicle: Klucel (hydroxypropylcellulose) (HPC)) 100 % of control; (dose: 200.0 mg/kg/injection, schedule: Q01DX009 (ip), vehicle: Klucel (hydroxypropylcellulose) (HPC)) 109 % of control; (dose: 200.0 mg/kg/injection, schedule: Q04DX003 (ip), vehicle: Klucel (hydroxypropylcellulose) (HPC)) 100 % of control.

Consider `C=CCN(CC=C)CCSC(=S)NCCOC`, for which the T/C was 95 % of control under setting [2], 100 % of control under setting [3] and 95 % of control under setting [4].

With `COc1ccc(C2CCc3cc4c(cc3/C2=N/O)OCO4)cc1OC` (stereo unspecified), the T/C by setting is: under setting [3], 104 % of control; under setting [5], 100 % of control; under setting [4], 104 % of control; under setting [6], 100 % of control; under setting [7], 95 % of control; under setting [8], 90 % of control.

With `CC(=O)n1cc(C2CC(=O)OC3=C2C(=O)CCC3)c2ccccc21` (stereo unspecified), the T/C was 94 % of control under setting [3]; 98 % of control under setting [5]; 100 % of control under setting [4]; 93 % of control under setting [6]; 102 % of control under setting [7]; 93 % of control under setting [8].

For the compound `CCOC(=O)N(C)C(C)Cc1ccccc1` (stereo unspecified), the T/C under setting [2] is 105 % of control and the T/C under setting [3] is 118 % of control.

On to `COc1cccc(N)c1N`, for which the T/C runs as follows: (dose: 50.0 mg/kg/injection, schedule: Q01DX009 (ip), vehicle: suspension in saline) 124 % of control; (dose: 200.0 mg/kg/injection, schedule: Q01DX009 (ip), vehicle: suspension in saline) 98 % of control.

Consider `C1CC[N-]CC1.C1CC[N-]CC1.C1CC[N-]CC1.C1CC[N-]CC1.CC(=N\[O-])/C(C)=N/O.CC(=N\[O-])/C(C)=N/O.[Cl-].[Cl-].[Cl][Rh][Cl].[Rh+3]`, for which the T/C was 98 % of control (dose: 50.0 mg/kg/injection, schedule: Q01DX009 (ip), vehicle: saline); 86 % of control (dose: 100.0 mg/kg/injection, schedule: Q01DX009 (ip), vehicle: saline); 86 % of control (dose: 200.0 mg/kg/injection, schedule: Q01DX009 (ip), vehicle: saline); 95 % of control (dose: 400.0 mg/kg/injection, schedule: Q01DX009 (ip), vehicle: saline).

Turning to `Clc1cc(CBr)c(CBr)cc1Cl`, the T/C (dose: 12.5 mg/kg/injection, schedule: Q01DX009 (ip), vehicle: saline with Tween-80) is 100 % of control.

`CCCCCCCCC(CO)CO`: the T/C is 100 % of control under setting [2], 92 % of control under setting [3] and 95 % of control under setting [4].

As for `O=C(O)c1cc(N=Nc2ccccc2)ccc1O`, the T/C was 104 % of control (dose: 50.0 mg/kg/injection, schedule: Q04DX003 (ip), vehicle: saline with Tween-80) and 100 % of control under setting [5].

As to `CC(=O)OC1CCC2(C)CCCC(O)C2(O)C1` (stereo unspecified), the T/C reads like this: under setting [3], 103 % of control; (dose: 100.0 mg/kg/injection, schedule: Q04DX003 (ip), vehicle: saline) 110 % of control; (dose: 200.0 mg/kg/injection, schedule: Q04DX003 (ip), vehicle: saline) 90 % of control; under setting [7], 103 % of control; (dose: 400.0 mg/kg/injection, schedule: Q04DX003 (ip), vehicle: saline) 110 % of control.

Take `Cc1cc(C=O)c(O)c(C=O)c1`: the T/C is 112 % of control (dose: 100.0 mg/kg/injection, schedule: Q04DX002 (ip), vehicle: saline with Tween-80); 110 % of control (dose: 200.0 mg/kg/injection, schedule: Q04DX002 (ip), vehicle: saline with Tween-80); 109 % of control (dose: 400.0 mg/kg/injection, schedule: Q04DX002 (ip), vehicle: saline with Tween-80).

Consider `NC(=O)NC(c1ccccc1)C(NC(N)=O)c1ccccc1` (stereo unspecified), for which the T/C reads like this: under setting [2], 110 % of control; under setting [3], 104 % of control; under setting [4], 91 % of control.

As to `CCOC(=O)C(C(C)=O)C(=O)OCC`, the T/C is, setting by setting: (dose: 25.0 mg/kg/injection, schedule: Q04DX003 (ip), vehicle: other) 90 % of control; (dose: 50.0 mg/kg/injection, schedule: Q01DX009 (ip), vehicle: other) 113 % of control; (dose: 50.0 mg/kg/injection, schedule: Q04DX003 (ip), vehicle: other) 99 % of control; (dose: 100.0 mg/kg/injection, schedule: Q01DX009 (ip), vehicle: other) 100 % of control; (dose: 100.0 mg/kg/injection, schedule: Q04DX003 (ip), vehicle: other) 99 % of control; (dose: 200.0 mg/kg/injection, schedule: Q04DX003 (ip), vehicle: other) 92 % of control. The T/C by setting is: (dose: 400.0 mg/kg/injection, schedule: Q01DX009 (ip), vehicle: other) 88 % of control; (dose: 400.0 mg/kg/injection, schedule: Q04DX003 (ip), vehicle: other) 110 % of control.

With `Cc1cc(=O)oc2c(N)nccc12`, the T/C (dose: 12.5 mg/kg/injection, schedule: Q01DX005 (ip), vehicle: saline with Tween-80) is 121 % of control.

On to `CCOc1ccc(NC(=S)N(C)C)cc1`, for which the T/C runs as follows: under setting [2], 90 % of control; under setting [3], 86 % of control.

`COc1cccc2c1C(=O)c1c(O)c3c(c(O)c1C2=O)C[C@@](O)(C(C)=O)C[C@@H]3OC1CC(N(C)C)C(O)C(C)O1` (stereo partly specified): the T/C is, setting by setting: (dose: 3.46 mg/kg/injection, schedule: Q04DX003 (ip), vehicle: water) 161 % of control; (dose: 5.76 mg/kg/injection, schedule: Q04DX003 (ip), vehicle: water) 167 % of control; (dose: 9.6 mg/kg/injection, schedule: Q04DX003 (ip), vehicle: water) 184 % of control; (dose: 16.0 mg/kg/injection, schedule: Q04DX003 (ip), vehicle: water) 110 % of control.

With `CCCC(=O)Oc1ccc(/C=N/NC(N)=S)nc1`, the T/C is, setting by setting: (dose: 44.0 mg/kg/injection, schedule: Q01DX009 (ip), vehicle: saline with Tween-80) 172 % of control; under setting [2], 173 % of control; (dose: 66.0 mg/kg/injection, schedule: Q01DX009 (ip), vehicle: saline with Tween-80) 183 % of control; under setting [3], 201 % of control and 211 % of control; (dose: 150.0 mg/kg/injection, schedule: Q01DX009 (ip), vehicle: saline with Tween-80) 227 % of control; under setting [4], 115 % of control.

Regarding `OCC1OC(Nc2ccccc2/C=N\O)C(O)C1O` (stereo unspecified), the T/C by setting is: under setting [3], 111 % of control; under setting [4], 94 % of control.
